Assay results as given in PubChem BioAssay AID2305 (GlaxoSmithKline (GSK), 2010).
Where “and” joins values, the source holds several entries; their conditions need not be identical. Identical values can stand only once.

System: P. falciparum 3D7 growth, pLDH absorbance
Assay: blood-stage malaria parasite growth potency – strain 3D7, dose response (AID 2305)

Structure (SMILES) | IC50
CC(C)CNCc1ccc(-c2ccc(CNC3CCN(Cc4ccccc4)CC3)cc2)cc1 | 560 nM
Cc1cccc(C)c1CNc1ccnc2ccccc12 | 1200 nM
Cc1noc(C)c1-c1cccc(CNCc2ccc(-c3cccc(-c4nc5ccc(C(F)(F)F)cc5[nH]4)c3)cc2)c1 | 560 nM
CN1CCCN(Cc2cccc(-c3cccc(NC(=O)c4ccc(C#N)cc4)c3)c2)CC1 | 1140 nM
CN(Cc1ccccc1)C1CCCN(c2cc(NC(=O)c3ccc(F)cc3)ccn2)C1 (stereo unspecified) | 990 nM
CCCC(C(=O)OCCN(CC)CC)(c1ccc(Cl)cc1)c1ccc(Cl)cc1 | 880 nM
Cc1cc(CN2CC[C@H](NC(=O)c3ccc(Cl)c(Cl)c3)C2)ccc1OC1CCN(C)C1 (stereo partly specified) | 950 nM
Cc1nc(-c2nc(NCc3ccccn3)ncc2-c2ccsc2)sc1C | 560 nM
CC1=C(C(=O)OC(C)C)C(c2ccccc2Cl)C2=C(CC(c3ccccc3)CC2=O)N1 (stereo unspecified) | 850 nM
Oc1ccc(CCCNc2nc(NCc3ccccc3-c3ccccc3)nc(N3CCNCC3)n2)cc1 | 710 nM
CCN(CC)CCCNc1c2ccccc2nc2ccccc12 | 750 nM
COc1ccc(CCNCc2ccc3c(C)cc(N)nc3c2)cc1 | 570 nM
CSc1nccc(-c2ccc(S(=O)(=O)NC3CCC(CN4CCC(c5c[nH]c6ccccc56)CC4)CC3)s2)n1 (stereo unspecified) | 250 nM and 810 nM
COc1cc(OC)c2c(C)cc(NCCCN3CCOCC3)nc2c1 | 1070 nM
Cc1nc2nc(N)nc(N)c2c(C)c1Cc1c(Cl)cccc1Cl | 50 nM
CC(C)CNCc1cccc(-c2ccc(CN(CCCN3CCN(C)CC3)C(=O)/C=C/c3ccccc3)cc2)c1 | 860 nM
COc1ccc(C2CCN(CCN3CCC(NC(=O)c4cccc(-c5ccncc5)c4)CC3)CC2)c(OC)c1 | 800 nM
CN(C)CC(O)COc1ccc(Nc2ncc([N+](=O)[O-])c(Nc3ccccc3O)n2)cc1 (stereo unspecified) | 760 nM
O=C(NCCCCN1CCC(c2ccc3ccccc3c2)CC1)c1ccc(NC(=O)c2ccc(Cl)cc2)cc1 | 230 nM
CCN(CC)CCOc1c(Cl)cc(Cl)cc1CNCCCNc1cc(=O)c2ccccc2[nH]1 | 870 nM
CO/C(=C\C=C/c1cc2cc(Cl)c(Cl)cc2[nH]1)C(=O)NC1CC(C)(C)N(C)C(C)(C)C1 | 830 nM
COc1cccc(C(=O)NCCOc2ccccc2)c1Oc1ccccc1 | 920 nM
CCOc1cc(C)ccc1C1CCN(CCCCNC(=O)c2cccc(-c3ccc(C(F)(F)F)cc3)c2)CC1 | 940 nM
COc1ccc(CCN(C)CCOc2ccc(NC(=O)c3ccc([N+](=O)[O-])c4c(=O)c5ccccc5[nH]c34)cc2)cc1OC | 930 nM

Structure (SMILES) | IC50
COc1cc(Cn2ccc3c4c(N)nc(N)nc4ccc32)cc(OC)c1OC | 10 nM
O=C(NC1CCCCC1)C(c1cccs1)N(CCc1ccccc1)C(=O)c1ccco1 (stereo unspecified) | 1040 nM
COc1cc(F)c2nccc([C@@H](O)CN3CCC(NCc4ccc5c(n4)NC(=O)CS5)CC3)c2c1 | 560 nM
COc1ccc(NC(=O)Nc2cccc(-c3cccc(-c4nc5ccc(F)cc5[nH]4)c3)c2)cc1 | 170 nM
COc1cc2ncnc(Nc3ccc4nc(Cc5ccccc5)[nH]c4c3)c2cc1OC | 1480 nM
S=C(NCCc1ccc(Cl)cc1)NC1CCC(CN2CCC(c3c[nH]c4ccccc34)CC2)CC1 (stereo unspecified) | 700 nM
CN(Cc1cccc(O)c1)C1CCN(c2cc(NC(=O)c3ccc(F)cc3)ccn2)C1 (stereo unspecified) | 1150 nM
COc1ccc(Oc2ccccc2CNCC2CCN(CC3CCCCC3)CC2)cc1 | 900 nM
CN(CCCc1c[nH]c2ccccc12)CCC1CCC(NC(=O)/C=C/c2ccc(Cl)c(Cl)c2)CC1 (stereo unspecified) | 650 nM
COc1ccc(C2C(C(=O)Nc3ccc4c(c3)OCO4)c3cc(OC)c(OC)cc3C(=O)N2C)cc1 (stereo unspecified) | 1040 nM
CCCNCc1ccc(-c2ccc(CN(CCOC)C(=O)c3cscn3)cc2)nc1 | 180 nM
Cc1cccc2[nH]c(-c3cccc(-c4ccc(CNCCNC(=O)c5ccnn5C)cc4)c3)nc12 | 170 nM
CC1CN=C(c2cccc(NC(=O)Nc3cccc(C4=NCC(C)N4)c3)c2)N1 (stereo unspecified) | 360 nM
CC(=O)Nc1cccc(CNCc2ccc(-c3cnc(N4CCCC(C)(C)C4)nc3)cc2)c1 | 820 nM
c1cn(-c2ccc(CNc3nccc(Nc4ccc(OCCN5CCOCC5)cc4)n3)cc2)cn1 | 880 nM
COCCNCc1cccc(-c2cc3nccc(Nc4ccc(Oc5ccccc5)cc4)c3cc2Cl)c1 | 1380 nM
COc1ccc(C2CC(c3cccs3)=NN2C(=O)c2ccco2)cc1OC (stereo unspecified) | 170 nM
Cc1cc(C(=O)NC2CCN(CC3(c4ccccc4)CCCCC3)CC2)on1 | 260 nM
Cn1cccc1CCNCc1ccc(-c2cccc(-c3nc4ccccc4[nH]3)c2)cc1 | 1210 nM
CN1CCN(CCCN(C(=O)Nc2cc(C(F)(F)F)cc(C(F)(F)F)c2)c2ccccc2Cc2ccccc2)CC1 | 1130 nM
Cc1c(F)cc(C(=O)NC2CC2)cc1-c1ccc2c(cnn2S(=O)(=O)c2ccc(F)c(F)c2)c1 | 270 nM
CC(C)CNC(=O)c1cncc(-c2cccc(CNC3Cc4ccccc4C3)c2)c1 | 790 nM
COc1cc(Cc2cnc(N)nc2N)ccc1OCC(=O)Nc1ccc(C)cc1 | 480 nM
Cc1ccc(Nc2nccc(NCC(O)c3cccc(C(F)(F)F)c3)n2)cc1 (stereo unspecified) | 680 nM

Structure (SMILES) | IC50
Cc1cc(N2CCCC2)nc(Nc2ccc(NC(=O)c3ccc4c(c3)OCO4)cc2)n1 | 810 nM
CC(C)Cn1cc(C2CCN(CCN3CCC(CNC(=O)c4ccc(-c5ccc(C#N)cc5)cc4)CC3)CC2)c2ccccc21 | 790 nM
COc1ccc(C(=O)Nc2nonc2-c2ccc(OC)c(OC)c2)cc1Cl | 670 nM
CCC(C)NS(=O)(=O)c1ccc2nc(Nc3ccc(C)cc3)n([C@H](C)C(C)(C)C)c2c1 (stereo partly specified) | 390 nM
CCN(C(=O)NC)[C@@H]1c2cc(C#N)ccc2OC(C)(C)[C@H]1O | 300 nM
COc1ccc2nc3cc(Cl)ccc3c(NCCCCN)c2c1 | 730 nM
O=C(/C=C/c1ccc(Cl)c(Cl)c1)NCCCCCN1CCC(NC(=O)Nc2ccc3c(c2)OCO3)CC1 | 710 nM
COc1ccc(Oc2ccc(Nc3ccnc4ccc(C(F)(F)F)cc34)cc2)cc1OC | 1060 nM
CC(C)(C)NC(=O)C(c1ccc(F)cc1)N(C(=O)c1ccc(CN2CCOCC2)o1)c1ccc(C2CCCCC2)cc1 (stereo unspecified) | 920 nM
CCNc1cc(C(=O)N[C@@H](Cc2ccccc2)[C@H](O)CNC(CC)c2cccc(Cl)c2)cc(N2CCCCS2(=O)=O)c1 (stereo partly specified) | 50 nM
CCCNCc1ccc(-c2ccc(CN(CCOC)C(=O)CCCOCc3ccccc3)cc2)nc1 | 1160 nM
COc1ccc2nccc([C@@H](O)CN3CCC(NC(=O)/C=C/c4ccc(F)c5ccccc45)CC3)c2c1 | 180 nM
N#Cc1cccc(Nc2nccc(Nc3ccc(Oc4ccccc4)cc3)n2)c1 | 830 nM
Cc1cc(N2CCCC2)nc(Nc2ccc(NC(=O)COc3ccccc3)cc2)n1 | 650 nM
O=C(Nc1ccc(C(F)(F)F)cc1)c1ccc(S(=O)(=O)NC2CCN(CC3CCCCC3)C2)cc1 (stereo unspecified) | 720 nM
O=C(/C=C/c1c[nH]c2ccccc12)NCCCCCN1CCC(c2c[nH]c3ccccc23)CC1 | 930 nM
Cc1ccc(CNC(=O)c2cnc(N3CCN(c4ccncc4)CC3)c(Cl)c2)cc1 | 1290 nM
CNc1ccc(CNCc2ccc(-c3ccc(-c4nc5c(C)cccc5[nH]4)s3)cc2)cc1 | 660 nM
Cc1nc2nc(N)nc(N)c2c(C)c1Cc1cccc(C#N)c1 | 920 nM
O=C1COc2ccc(S(=O)(=O)N3CCC[C@@H]3CCN3CCC(c4c[nH]c5cnccc45)CC3)cc2N1 | 860 nM
C=C(NC(=O)C1CCCCC1)C(=O)OC | 850 nM
FC(F)(F)c1ccc2c(NCCNc3ccnc4cc(C(F)(F)F)ccc34)ccnc2c1 | 30 nM
Nc1cc(-c2cccc(Cl)c2)nn1-c1ccnc2cc(Cl)ccc12 | 750 nM
COc1ccc(NC(=O)NC2CCN(CCCCCNC(=O)/C=C/c3ccc(Cl)c(Cl)c3)C2)c(OC)c1 (stereo unspecified) | 820 nM

Structure (SMILES) | IC50
COc1ccc(-c2ccc(NC(=O)c3cccc(Cl)c3)cc2)cc1CN1CCCN(C)CC1 | 600 nM
Cc1noc(C)c1-c1cccc(CNCc2cccc(-c3ccc(-c4nc5c(C)cccc5[nH]4)s3)c2)c1 | 210 nM
CCCC[C@H](NC(=O)O[C@H](COc1ccc(OCc2ccccc2)cc1)C(C)(C)C)C(=O)C(=O)Nc1ccn[nH]1 | 990 nM
Cc1ccc(C(CC(=O)Nc2nccs2)c2ccc(OC(C)C)cc2)cc1 (stereo unspecified) | 480 nM
Cc1nc(-c2ccc(-c3ccc(NC(=O)c4coc5ccc(N6C[C@@H](C)N(C)[C@@H](C)C6)cc45)cc3)c(C)c2)no1 | 770 nM
CC1(C)N=C(N)N=C(N)N1c1ccc2ccccc2c1 | 50 nM
NCC1CCCN1Cc1ccc(-c2ccc(-c3nc4ccc(F)cc4[nH]3)cc2)cc1 (stereo unspecified) | 930 nM
Cc1nnsc1C(=O)Nc1cccc(-c2csc(-c3nc4ccccc4[nH]3)c2)c1 | 350 nM
CN(C)CCOc1cc(NC(=O)Nc2ccc(-c3ccccc3)cc2Cl)ccc1I | 250 nM
CN(C)C(=NCCCCCCN=C(/N=C(/N)Nc1ccc(Cl)cc1)N(C)C)/N=C(/N)Nc1ccc(Cl)cc1 | 530 nM
FC(F)(F)c1ccc2nc(-c3ccc(-c4ccc(CNCC5CCCO5)cc4)cc3)[nH]c2c1 (stereo unspecified) | 410 nM
CN(C)c1ccc(-c2cscc2C(=O)NC2CCCN(Cc3cccnc3)C2)cc1 (stereo unspecified) | 860 nM
C=C(C)C1CC=C(CN2CCCC(n3ccc4cc(NC(=O)c5ccco5)ccc43)CC2)CC1 (stereo unspecified) | 750 nM
Cc1csc2nc(-c3ccccn3)nc(Nc3ccncn3)c12 | 790 nM
Cc1noc(C)c1-c1ccc2c(Nc3cccc4c3-c3ccccc3C4=O)c(C(=O)NCc3ccccc3I)cnc2c1 | 630 nM
CCCCCN1CCC(NS(=O)(=O)c2cccc(C(=O)Nc3ccc(C(F)(F)F)cc3)c2)C1 (stereo unspecified) | 800 nM
CCCC(C)Nc1nc(C)cc(N[C@@H](Cc2ccccc2)C(=O)NCc2ccc(C)cc2)n1 (stereo partly specified) | 1120 nM
CCCCCCCCCCN1C(=O)C2C(CCCCNC(C)=O)NC3(C(=O)N(Cc4ccc(C(C)(C)C)cc4)c4ccccc43)C2C1=O (stereo unspecified) | 990 nM
O=C(Nc1ccc(-c2cccc(-c3nc4ccccc4[nH]3)c2)cc1)Nc1ccc(Cl)c(Cl)c1 | 460 nM
COc1cc2c(cc1OC)CN(CCc1ccc(NC(=O)c3cc4cc(Cl)ccc4[nH]3)cc1)CC2 | 1020 nM
C=CCNc1cc(-c2ccccn2)nc(-c2ccccn2)n1 | 470 nM
O=C(Nc1ccc(Cl)cc1)NC1CCN(CCCCCNC(=O)[C@@H]2C[C@H]2c2ccc(Cl)c(Cl)c2)CC1 | 580 nM
CC(C)C[C@H](NC(=O)c1cc(-c2ccc(C(C)(C)C)cc2)no1)C(=O)O (tested in a mixture with another compound) | 190 nM
CCc1cn2c3c(cc(C(=O)N[C@@H](Cc4ccccc4)[C@H](O)CNC(C)(C)CCCC(C)C)cc13)N(C)S(=O)(=O)C2 | 240 nM
